Results published in patent publication US10413517B2, “Composition and method for the treatment of neurological diseases and cerebral injury” (UNIVERSITY OF NOTRE DAME DU LAC, priority 2014, dated 2019).

How the values were obtained:
Npc1^nmf164 mice = experiment: Survival of drug treated NPC mice (Kaplan-Meier); assay type: in vivo, mouse; settings: for median life span: males and females combined, weekly i.p., Vo 50 mg/Kg in PEG, 2×HPBCD 4000 mg/Kg, TCF (Vo 50 mg/Kg+HPBCD 2000 mg/Kg+PEG); for effect on animal survival: i.p. once weekly from day 21
Text: The present study, inter alia, evaluated the efficacy of Vorinostat (Vo) an HDACi for the treatment of Niemann-Pick Type C disease in a mouse model. […] We hypothesized poor solubility, reduced plasma exposure and penetration across the Blood Brain Barrier (BBB) of Vo to be the possible reasons behind its ineffectiveness in the animals. To overcome these limitations, we used HPBCD as an excipient and made a formulation that contained Vo, HPBCD and polyethylene glycol (PEG) and named it Triple combination Formulation (TCF). The effect of TCF was evaluated using different molecular, biochemical, histological and neurobehavioral measures in NPC mice at indicated ages. For survival and neurobehavioral testing 8-10 mice were used in groups injected with drug. At least 6 mice were used in vehicle treated group. End point for survival studies were set at ≥30% weight loss. For molecular, biochemical, histological analyses at least 3-4 mice were used with at least two technical replicates in each assay. Animals were randomly assigned to treatment groups. Equal numbers of males and females were included in each group. Two independent PK experiments in mice were done each containing 5 mice in a group. The reliability and robustness of neurobehavioral scoring system was evaluated by two blinded investigators. Investigators were blinded to the drug injections while assessing the neurobehavioral functions. Determination of Vo in plasma samples were done by blinded investigators at the Metabolite Profiling Facility, Purdue University, IN, USA. Sample sizes were chosen based on previous experience or similar studies conducted by others. All data points were used in the statistical analyses.
Npc1^nmf164, BALB/c strain carrying an aspartate to glycine mutation at position 1005 (D1005G) in Npc1 gene was used as NPC disease model. (Maue, R. A., et al., Hum Mol Genet 21: 730-750 (2012)).When animals were sick and unable to reach the food provided on the holder, regular food (2019 Teklad diet, Harlan Laboratories, Indianapolis, Ind.) was replaced with DietGel 76A (Clear H2O, Portland, Me.). Studies with mice were performed with approval and authorization from the Institutional Animal Care and Use Committee of University of Notre Dame, Indiana, USA.
Vorinostat (50 mg/Kg)—Vorinostat was first dissolved in DMSO (100 mg/ml) and then diluted with 9 volume of Polyethylene Glycol 400 (PEG). This drug solution was named as ‘solution A’. Solution A was diluted with equal volume of water where the final concentration of each component was as follows; Vorinostat, 5 mg/ml; DMSO, 5% and PEG, 45%. Mice were given weekly intraperitoneal (i.p) injections starting at 21 days. Vorinostat (100 mg/Kg)—Vorinostat was first dissolved in DMSO (200 mg/ml) and then mixed with 9 volumes of PEG. Rest of the methods and injections plan were as described above. HPBCD (4000 mg/Kg)—40% HPBCD solution prepared in water. Mice were given weekly i.p injections starting at 7 days. HPBCD (2000 mg/Kg)—20% HPBCD solution prepared in water. Mice were given weekly i.p injections starting at 7 days. TCF (Vorinostat, 50 mg/Kg+HPBCD, 2000 mg/Kg, DMSO, 5%+PEG, 45%)—To prepare the formulation, the ‘solution A’ was first prepared as described above and equal volume of 40% HPBCD solution was slowly layered on top of it. The solution was gently mixed for 10 min at RT on rocker set at medium speed. The final concentration of each component in the formulation was as follows; Vorinsotat, 5 mg/ml; DMSO 5%; PEG, 45%; and HPBCD, 20%. Mice were given two i.p doses of HPBCD (2000 mg/Kg) at 7 and 15 days. Starting from 21 days mice were given weekly i.p injection of TCF. Vehicle control (5% DMSO and 45% PEG)—It was made by mixing 1 volume of DMSO with 9 volume of PEG and then diluted with equal volume of water. Mice were given weekly i.p injection starting from 21 days. All drug solutions were stored at −80° C. Fresh vials of frozen stock were thawed for injection on different days. […]

macrophages in the liver = experiment: Liver macrophage labeling (anti-CTSS immunofluorescence); assay type: in vivo, mouse; settings: 100 days, Vo 50 mg/Kg, HPBCD 2000 mg/Kg, TCF
Method: Mice were sacrificed by asphyxiation using CO2. Harvested organs were immersed fixed in 10% neutral buffered formalin (˜4% formaldehyde) for 24 hrs at RT. The organs were subsequently stored in 70% alcohol at RT until transfer to paraffin. Paraffin-embedded tissue sections (4-5 μm) were dewaxed in xylene and alcohol. Calbindin antigen retrieval was done by pre-incubating deparaffinized samples with 0.05% proteinase K (Dako, Germany) in 50 mM Tris-HCl (pH 7.5) for 8 min at RT. CTSS and NPC1 was retrieved by boiling the sections in acidic condition for 30 min. Blocking was done either with 2% goat serum (for calbindin and NPC1) or 2% rabbit serum (for cathepsin S) for 30 min at RT. Sections were incubated with anti-calbindin (1:1000, C9848, Sigma), anti-cathepsin S (20 μg/ml, M-19, Santa Cruz Biotechnology), anti-NPC1 (custom made against human NPC1 protein, 20 μg/ml) overnight at 4° C. The appropriate FITC or TRITC-conjugated secondary IgG (MP Biomedicals, Solon, Ohio, USA) antibodies were used at 1:200 dilution. Sections were subsequently washed with PBS containing DAPI (0.5 μg/ml). Vectashield (Vector laboratories) was used as mounting medium and processed for fluorescence microscopy.
Tissue sections after IFA and filipin stained fibroblasts were visualized with 40× oil-immersion objective lens (NA 1.35). Filipin stain was visualized using DAPI filter. Digital image collection were performed using an Olympus IX inverted fluorescence microscope and a Photometrix cooled CCD camera (CH350/LCCD) driven by DeltaVision software from Applied Precision (Seattle, Wash., USA). DeltaVision software (softWoRx) was used to deconvolve these images. Images are single optical sections. Images were analyzed using ImageJ software (NIH, MD, USA).

Compound | median life span (Npc1^nmf164 mice) | effect on animal survival (Npc1^nmf164 mice; vorinostat 50 mg/Kg in PEG) | effect on animal survival (Npc1^nmf164 mice; vorinostat 50 mg/Kg in PEG, listed as Vorinostat) | effect on animal survival (Npc1^nmf164 mice; vorinostat 100 mg/Kg in PEG) | macrophages in the liver (histology) (macrophages in the liver) | macrophages in the liver (histology) (macrophages in the liver; listed as Vo) | increase of survival relative to vorinostat in PEG (Npc1^nmf164 mice; 4000 mg/Kg weekly i.p., 180 vs 134 d)
O=C(CCCCCCC(=O)Nc1ccccc1)NO [vorinostat] | 134 days | no significant survival benefit | no significant beneficial effect on animal survival | no survival benefit | also had effect but less so than TCF or HPBCD | reduced the clustering of macrophages | –
CC(O)COC[C@H]1O[C@@H]2O[C@H]3[C@H](O)[C@@H](O)[C@@H](O[C@H]4[C@H](O)[C@@H](O)[C@@H](O[C@H]5[C@H](O)[C@@H](O)[C@@H](O[C@H]6[C@H](O)[C@@H](O)[C@@H](O[C@H]7[C@H](O)[C@@H](O)[C@@H](O[C@H]8[C@H](O)[C@@H](O)[C@@H](O[C@H]1[C@H](O)[C@H]2O)O[C@@H]8COCC(C)O)O[C@@H]7COCC(C)O)O[C@@H]6COCC(C)O)O[C@@H]5COCC(C)O)O[C@@H]4COCC(C)O)O[C@@H]3COCC(C)O (stereo partly drawn) [HPBCD, 2-Hydroxypropyl-β-cyclodextrin] | 180 days | – | – | – | Foamy macrophages were barely seen | – | increased survival by a third
